Assay results published in the supplement of paper PMC10307832.

How the values were obtained:
Assay in all cases: relative viability (nuclei count vs DMSO), 5 days (fraction); higher = more cells survive
NCI-H2342 = test system: NCI-H2342
Outline: (§1)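 One day after seeding in 1536-well plates, lung cancer cell lines were dosed by pin tool. Dosing was either single-drug or a fixed anchor-drug dose plus five library-drug doses (not always all listed) in √10 steps. After 5 days, nuclei were stained in one fix-and-stain step and counted on 4× images, and relative viability is the nuclei count of treated wells over that of vehicle wells, given as the median of duplicate plates.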

NCI-H2170 = test system: NCI-H2170
Outline: as §1

NCI-H1395 = test system: NCI-H1395
Outline: as §1

NCI-H661 = test system: NCI-H661
Outline: as §1

HCC-366 = test system: HCC-366
Outline: as §1

BEN = test system: BEN
Outline: as §1

NCI-H1734 = test system: NCI-H1734
Outline: as §1

SK-MES-1 = test system: SK-MES-1
Outline: as §1

NCI-H1993 = test system: NCI-H1993
Outline: as §1

NCI-H1437 = test system: NCI-H1437
Outline: as §1

NCI-H1355 = test system: NCI-H1355
Outline: as §1

NCI-H522 = test system: NCI-H522
Outline: as §1

NCI-H2405 = test system: NCI-H2405
Outline: as §1

NCI-H1792 = test system: NCI-H1792
Outline: as §1

EKVX = test system: EKVX
Outline: as §1

HCC-827 = test system: HCC-827
Outline: as §1

LOU-NH91 = test system: LOU-NH91
Outline: as §1

SK-LU-1 = test system: SK-LU-1
Outline: as §1

HARA = test system: HARA
Outline: as §1

NCI-H2009 = test system: NCI-H2009
Outline: as §1

NCI-H2087 = test system: NCI-H2087
Outline: as §1

NCI-H647 = test system: NCI-H647
Outline: as §1

Compound: O=c1cc(-c2cccc3c2Sc2ccccc2S3)oc(N2CCOCC2)c1 + N=C(N)NC(=N)NCCc1ccccc1 [Phenformin] (partner 250 µM)
- relative viability (NCI-H2342; first compound 0.08 µM): 0.526
- relative viability (NCI-H2342; first compound 0.253 µM): 0.62
- relative viability (NCI-H2342; first compound 0.8 µM): 0.542
- relative viability (NCI-H2342; first compound 2.53 µM): 0.557
- relative viability (NCI-H2342; first compound 8 µM): 0.608
- relative viability (NCI-H2170; first compound 0.08 µM): 0.427
- relative viability (NCI-H2170; first compound 0.253 µM): 0.444
- relative viability (NCI-H2170; first compound 0.8 µM): 0.431
- relative viability (NCI-H2170; first compound 2.53 µM): 0.319
- relative viability (NCI-H2170; first compound 8 µM): 0.444
- relative viability (NCI-H1395; first compound 0.08 µM): 0.462
- relative viability (NCI-H1395; first compound 0.253 µM): 0.393
- relative viability (NCI-H1395; first compound 0.8 µM): 0.472
- relative viability (NCI-H1395; first compound 2.53 µM): 0.389
- relative viability (NCI-H1395; first compound 8 µM): 0.433
- relative viability (NCI-H661; first compound 0.08 µM): 0.269
- relative viability (NCI-H661; first compound 0.253 µM): 0.26
- relative viability (NCI-H661; first compound 0.8 µM): 0.271
- relative viability (NCI-H661; first compound 2.53 µM): 0.267
- relative viability (NCI-H661; first compound 8 µM): 0.259
- relative viability (HCC-366; first compound 0.08 µM): 0.588
- relative viability (HCC-366; first compound 0.253 µM): 0.727
- relative viability (HCC-366; first compound 0.8 µM): 0.71
- relative viability (HCC-366; first compound 2.53 µM): 0.549
- relative viability (HCC-366; first compound 8 µM): 0.632
- relative viability (BEN; first compound 0.08 µM): 0.258
- relative viability (BEN; first compound 0.253 µM): 0.306
- relative viability (BEN; first compound 0.8 µM): 0.248
- relative viability (BEN; first compound 2.53 µM): 0.217
- relative viability (BEN; first compound 8 µM): 0.3
- relative viability (NCI-H1734; first compound 0.08 µM): 0.36
- relative viability (NCI-H1734; first compound 0.253 µM): 0.45
- relative viability (NCI-H1734; first compound 0.8 µM): 0.417
- relative viability (NCI-H1734; first compound 8 µM): 0.436
- relative viability (SK-MES-1; first compound 0.08 µM): 0.681
- relative viability (SK-MES-1; first compound 0.253 µM): 0.762
- relative viability (SK-MES-1; first compound 0.8 µM): 0.649
- relative viability (SK-MES-1; first compound 2.53 µM): 0.642
- relative viability (SK-MES-1; first compound 8 µM): 0.666
- relative viability (NCI-H1993; first compound 0.08 µM): 0.494
- relative viability (NCI-H1993; first compound 0.253 µM): 0.52
- relative viability (NCI-H1993; first compound 0.8 µM): 0.589
- relative viability (NCI-H1993; first compound 2.53 µM): 0.565
- relative viability (NCI-H1993; first compound 8 µM): 0.56
- relative viability (NCI-H1437; first compound 0.08 µM): 0.271
- relative viability (NCI-H1437; first compound 0.253 µM): 0.683
- relative viability (NCI-H1437; first compound 0.8 µM): 0.238
- relative viability (NCI-H1437; first compound 2.53 µM): 0.277
- relative viability (NCI-H1437; first compound 8 µM): 0.343
- relative viability (NCI-H1355; first compound 0.08 µM): 0.47
- relative viability (NCI-H1355; first compound 0.253 µM): 0.479
- relative viability (NCI-H1355; first compound 0.8 µM): 0.421
- relative viability (NCI-H1355; first compound 2.53 µM): 0.429
- relative viability (NCI-H1355; first compound 8 µM): 0.409
- relative viability (NCI-H522; first compound 0.08 µM): 0.56
- relative viability (NCI-H522; first compound 0.253 µM): 0.689
- relative viability (NCI-H522; first compound 0.8 µM): 0.622
- relative viability (NCI-H522; first compound 2.53 µM): 0.556
- relative viability (NCI-H522; first compound 8 µM): 0.67
- relative viability (NCI-H2405; first compound 0.08 µM): 0.354
- relative viability (NCI-H2405; first compound 0.253 µM): 0.372
- relative viability (NCI-H2405; first compound 0.8 µM): 0.45
- relative viability (NCI-H2405; first compound 2.53 µM): 0.385
- relative viability (NCI-H2405; first compound 8 µM): 0.415
- relative viability (NCI-H1792; first compound 0.08 µM): 0.185
- relative viability (NCI-H1792; first compound 0.253 µM): 0.349
- relative viability (NCI-H1792; first compound 0.8 µM): 0.258
- relative viability (NCI-H1792; first compound 2.53 µM): 0.168
- relative viability (NCI-H1792; first compound 8 µM): 0.345
- relative viability (EKVX; first compound 0.08 µM): 0.191
- relative viability (EKVX; first compound 0.253 µM): 0.237
- relative viability (EKVX; first compound 0.8 µM): 0.218
- relative viability (EKVX; first compound 2.53 µM): 0.209
- relative viability (EKVX; first compound 8 µM): 0.265
- relative viability (HCC-827; first compound 0.08 µM): 0.396
- relative viability (HCC-827; first compound 0.253 µM): 0.452
- relative viability (HCC-827; first compound 0.8 µM): 0.402
- relative viability (HCC-827; first compound 2.53 µM): 0.306
- relative viability (HCC-827; first compound 8 µM): 0.408
- relative viability (LOU-NH91; first compound 0.08 µM): 0.611
- relative viability (LOU-NH91; first compound 0.253 µM): 0.675
- relative viability (LOU-NH91; first compound 0.8 µM): 0.658
- relative viability (LOU-NH91; first compound 2.53 µM): 0.6
- relative viability (LOU-NH91; first compound 8 µM): 0.741
- relative viability (SK-LU-1; first compound 0.08 µM): 0.545
- relative viability (SK-LU-1; first compound 0.253 µM): 0.551
- relative viability (SK-LU-1; first compound 0.8 µM): 0.737
- relative viability (SK-LU-1; first compound 2.53 µM): 0.459
- relative viability (SK-LU-1; first compound 8 µM): 0.527
- relative viability (HARA; first compound 0.08 µM): 0.452
- relative viability (HARA; first compound 0.253 µM): 0.592
- relative viability (HARA; first compound 0.8 µM): 0.435
- relative viability (HARA; first compound 2.53 µM): 0.348
- relative viability (HARA; first compound 8 µM): 0.702
- relative viability (NCI-H2009; first compound 0.08 µM): 0.481
- relative viability (NCI-H2009; first compound 0.253 µM): 0.545
- relative viability (NCI-H2009; first compound 0.8 µM): 0.522
- relative viability (NCI-H2009; first compound 2.53 µM): 0.445
- relative viability (NCI-H2009; first compound 8 µM): 0.446
- relative viability (NCI-H2087; first compound 0.08 µM): 0.47
- relative viability (NCI-H2087; first compound 0.253 µM): 0.623
- relative viability (NCI-H2087; first compound 0.8 µM): 0.527
- relative viability (NCI-H2087; first compound 2.53 µM): 0.398
- relative viability (NCI-H2087; first compound 8 µM): 0.462
- relative viability (NCI-H647; first compound 0.08 µM): 0.572
- relative viability (NCI-H647; first compound 0.253 µM): 0.838
- relative viability (NCI-H647; first compound 0.8 µM): 0.547
- relative viability (NCI-H647; first compound 2.53 µM): 0.476
- relative viability (NCI-H647; first compound 8 µM): 0.487
